The values below come from patent EP0608858A1, “5-Membered heterocycles as aggregation inhibitors” (Dr. Karl Thomae GmbH, priority 1993, dated 1994).

pEC50, pIC50: −log10 of the molar value. Structures can show the parent of a compound that is named as a salt.

Data set [1] has as its system Humanthrombozyten. Description: Competitive binding of ³H-BIBU 52 / test substance to human platelets. The conditions noted are these: human platelets in plasma, ³H-BIBU 52 5 nM, 20 min at room temperature; read-out: Kompetitive Bindung ³H-BIBU 52 Textsubstanz an Humanthrombozyten IC₅₀. An excerpt:
1. Kompetitive Bindung ³H-BIBU 52/Testsubstanz an Humanthrombozyten:
Eine Suspension von Humanthrombozyten in Plasma wird mit ³H-BIBU 52 [= (3S,5S)-5-[(4'-Amidino-4-biphenylyl)oxymethyl]-3-[(carboxyl)methyl]-2-pyrrolidinon[3-³H-4-biphenylyl]], das den literaturbekannten Liganden ¹²⁵I-Fibrinogen ersetzt, (siehe deutsche Patentanmeldung P 42 14 245.8 der gleichen Anmeldezin vom 30. 04. 1992, internes Zeichen: Case 5/1093-FL) und verschiedenen Konzentrationen der zu testenden Substanz inkubiert. Der freie und gebundene Ligand wird durch Zentrifugation getrennt und durch Szintillationszählung quantitativ bestimmt. Aus den Meßwerten wird die Hemmung der ³H-BIBU 52-Bindung durch die Testsubstanz bestimmt.
Hierzu wird aus einer Antikubitalvene Spenderblut entnommen und mit Trinatriumzitrat antikoaguliert (Endkonzentration 13 mM) . Das Blut wird 10 Minuten bei 170 x g zentrifugiert und das überstehende plättchenreiche Plasma (PRP) abgenommen. Das Restblut wird zur Gewinnung von Plasma nocheinmal scharf abzentrifugiert. Das PRP wird mit autologem Plasma 1:10 verdünnt. 750 µl werden mit 50 µl physiologischer Kochsalzlösung, 100 µl Testsubstanzlösung, 50 µl ¹⁴C-Sucrose (3.700 Bq) und 50 µl ³H-BIBU 52 (Endkonzentration: 5 nM.) bei Raumtemperatur 20 Minuten inkubiert. Zur Messung der unspezifischen Bindung wird anstelle der Testsubstanz 5 µl BIBU 52 (Endkonzentration: 30 µM) eingesetzt. Die Proben werden 20 Sekunden bei 10000 x g zentrifugiert und der Überstand abgezogen. 100 µl hiervon werden zur Bestimmung des freien Liganden gemessen. Das Pellet wird in 500 µl 0,2N NaOH gelöst, 450 µl werden mit 2 ml Szintillator und 25 µl 5N HCl versetzt und gemessen. Das im Pellet noch verbliebene Restplasma wird aus dem ¹⁴C-Gehalt bestimmt, der gebundene Ligand aus der ³H-Messung. Nach Abzug der unspezifischen Bindung wird die Pelletaktivität gegen die Konzentration der Testssubstanzaufgetragen und die Konzentration für eine 50%ige Hemmung der Bindung ermittelt.

Another data set deals with Thrombozytenaggregation. Description: Collagen-induced platelet aggregation (Born and Cross) in platelet-rich plasma. The data set is classed as cell-based, gesunder Versuchspersonen. The conditions noted are these: human platelet-rich plasma, 10 min preincubation with substance at 37°C, read-out: Hemmung der Plättchenaggregation EC₅₀. The text has this:
2. Antithrombotische Wirkung
Die Thrombozytenaggregation wird nach der Methode von Born und Cross (J. Physiol. 170, 397 (1964)) in plättchenreichem Plasma gesunder Versuchspersonen gemessen. Zur Gerinnungshemmung wird das Blut mit Natriumcitrat 3,14 % im Volumenverhältnis 1:10 versetzt.
Collagen-induzierte Aggregation
Der Verlauf der Abnahme der optischen Dichte der Plättchensuspension wird nach Zugabe der aggregationsauslösenden Substanz photometrisch gemessen und registriert. Aus dem Neigungswinkel der Dichtekurve wird auf die Aggregationsgeschwindigkeit geschlossen. Der Punkt der Kurve, bei dem die größte Lichtdurchlässigkeit vorliegt, dient zur Berechnung der "optical density".
Die Collagen-Konzentration wird möglichst gering gewählt, aber doch so, daß sich eine irreversibel verlaufende Reaktionskurve ergibt. Verwendet wird das handelsübliche Collagen der Firma Hormonchemie, München. Vor der Collagen-Zugabe wird das Plasma jeweils 10 Minuten mit der Substanz bei 37°C inkubiert.
Aus den Konzentrations-Wirkungskurven wird die EC₅₀ berechnet, die die Konzentration beschreibt, bei der die Änderung der "optical density" halbmaximal gehemmt ist.

The test system of data set [2] is Humanthrombozyten. Briefly: Ex vivo inhibition of collagen-induced aggregation of human platelets by rat plasma obtained after oral dosing. The data set is classed as in vivo. To be noted: rat plasma obtained after oral 10 mg/kg, after 3 hours. How it is done: Außerdem erzielt man beispielsweise mit dem nach peroraler Gabe vom 10 mg/kg der Verbindung des Beispiels 2(19) gewonnenen Rattenplasma ex vivo nach 3 Stunden eine 80%ige Hemmung der durch Kollagen induzierten Aggregration von Humanthrombozyten.

For another data set, the system named is Mäusen. Briefly: Tolerability after intravenous administration to mice. The data set is classed as in vivo. To be noted: 30 mg/kg, 3 mice each.

`COC(=O)[C@H]1CC[C@H](c2nnc(-c3ccc(C4CCNCC4)cc3)s2)CC1` [2(3), 2-[trans-4-(Methoxycarbonyl)-cyclohexyl)-5-[4-(4-piperidyl)-phenyl]-1,3,4-thiadiazol-hydrochlorid]: in the data set on Humanthrombozyten [1], the pIC50 was 6.26. Further, the pEC50 in the data set with Thrombozytenaggregation was 6.42.
As for `CCOC(=O)[C@H]1CC[C@H](c2nnc(-c3ccc(C4CCNCC4)cc3)s2)CC1.Cl` [2(19), 2-[trans-4-(Ethoxycarbonyl)-cyclohexyl]-5-[4-(4-piperidyl)-phenyl]-1,3,4-thiadiazol-hydrochlorid], the “Hemmung der durch Kollagen induzierten Aggregration von Humanthrombozyten” value in the data set with Humanthrombozyten [2] was found to be 80%.
With `O=C(O)CCCCc1nnc(-c2ccc(C3CCNCC3)cc2)o1` [3(1), 2-(4-Carboxybutyl)-5-[4-(4-piperidyl)-phenyl]-1,3,4-oxadiazol], the pIC50 in the data set on Humanthrombozyten [1] was 5.17. Further, the pEC50 in the data set with Thrombozytenaggregation is 5.36.
Consider `CCCCS(=O)(=O)NC(Cc1cn(-c2ccc(-c3ccc(C(=N)N)cc3)nn2)cn1)C(=O)O` (centres unmarked) [3(3), 1-[6-(4-Amidino-phenyl)-3-pyridazinyl]-4-[2-(n-butan-sulfonylamino)-2-carboxy-ethyl]-imidazol-hydrochlorid], for which, in the data set on Humanthrombozyten [1], the pIC50 was 8.80. Moreover, the pEC50 with Thrombozytenaggregation was 7.40.
Consider `Cl.O=C(O)[C@H]1CC[C@H](c2nnc(-c3ccc(C4CCNCC4)cc3)s2)CC1` [5(3), 2-(trans-4-Carboxy-cyclohexyl)-5-[4-(4-piperidyl)-phenyl]-1,3,4-thiadiazol-hydrochlorid], for which the pIC50 in the data set with Humanthrombozyten [1] was 7.96. For the same compound, in the data set on Thrombozytenaggregation, the pEC50 was 7.00. For the same compound, in the data set on Mäusen, the Tiere gestorben entry is “keine Tiere gestorben”.
For the compound `COC(=O)CCNC(=O)c1nnc(-c2ccc(C3CCNCC3)cc2)s1` [Beispiel 2, 2-[[2-(Methoxycarbonyl)-ethyl]-aminocarbonyl]-5-[4-(4-piperidyl)-phenyl]-1,3,4-thiadiazol-hydrochlorid], in the data set with Humanthrombozyten [1], the pIC50 is 4.62. Also, the pEC50 in the data set with Thrombozytenaggregation is 5.52.
Taken in the same sequence, the figures for `O=C(O)CCNC(=O)c1nnc(-c2ccc(C3CCNCC3)cc2)s1` [Beispiel 3, 2-[(2-Carboxyethyl)-aminocarbonyl]-5-[4-(4-piperidyl)-phenyl]-1,3,4-thiadiazol-hydrochlorid] were 6.40 and 6.06.
With `Cl.O=C(O)CCCCc1nnc(-c2ccc(C3CCNCC3)cc2)s1` [Beispiel 5, 2-(4-Carboxy-butyl)-5-[4-(4-piperidyl)-phenyl]-1,3,4-thiadiazol-hydrochlorid], the pIC50 in the data set with Humanthrombozyten [1] is 6.29. Also, in the data set with Thrombozytenaggregation, the pEC50 was 6.49. The Tiere gestorben entry in the data set on Mäusen is “keine Tiere gestorben”.
